What was measured:
K562 cells = assay: MTT cell viability assay; format: cell-based; settings: Homo sapiens
Experimental: Cell viability of K562 cells was quantified by MTT based colorimetric assay as described elsewhere. Briefly, cells were rinsed with PBS and 0.5 mg/ml MTT was added into each sample. The mixture was incubated at 37°C for an additional 3 h. At the end of incubation period, the medium containing MTT was removed and the pellet was dissolved in 200 µl DMSO. Absorbance was measured at a wavelength of 570 nm. Cell viability was expressed as a percentage of the control culture.
The concentration (IC50) at which the K562 cell survivability was reduced to 50% was calculated for EGCG and 3-AT by MTT based cell viability assay.

[1] = biological target: T1, Catalase (from bovine liver) (Bos taurus, UniProt P00432); assay: Inhibition of pure catalase activity (cell free), H2O2 decay at 240 nm; format: biochemical
T1 construct: Catalase (from bovine liver); purchased Sigma-Aldrich, St. Louis, MO, USA; host or cells: bovine liver
T1 sequence (P00432 2-527 limits assumed): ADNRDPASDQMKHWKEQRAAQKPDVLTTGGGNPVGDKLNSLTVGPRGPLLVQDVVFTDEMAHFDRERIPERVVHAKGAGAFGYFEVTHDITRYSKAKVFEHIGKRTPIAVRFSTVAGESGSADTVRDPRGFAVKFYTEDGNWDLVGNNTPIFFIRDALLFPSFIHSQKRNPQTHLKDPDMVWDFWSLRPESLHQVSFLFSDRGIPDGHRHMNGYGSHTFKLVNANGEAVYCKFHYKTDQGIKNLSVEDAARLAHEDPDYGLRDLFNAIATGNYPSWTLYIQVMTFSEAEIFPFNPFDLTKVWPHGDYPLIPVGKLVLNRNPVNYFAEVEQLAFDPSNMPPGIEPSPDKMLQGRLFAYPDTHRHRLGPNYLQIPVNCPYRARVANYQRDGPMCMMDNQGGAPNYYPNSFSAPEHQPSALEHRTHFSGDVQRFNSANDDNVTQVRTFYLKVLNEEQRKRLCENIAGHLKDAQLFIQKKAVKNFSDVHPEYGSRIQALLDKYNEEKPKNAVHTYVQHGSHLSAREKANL
Experimental: Absorption spectrophotometer (Varian, CARY 100 Bio, USA) was used to determine pure catalase activity (cell free). Briefly, 900 µl of H2O2 (0.036%) was taken in quartz cell of 1 cm path length and its absorbance was recorded at 240 nm. To the solution, 100 µl of catalase (50 U/ml) was added and the decrease in absorbance was recorded at 10 s interval. This experiment was performed in presence 50 µM each of four catechins and 3-AT separately to evaluate the inhibitory effect of catechins on catalase activity, after 1 h incubation.
(§1) On addition of catechins, a decrease in rate of H2O2 degradation i.e. a decrease in pure catalase activity was observed which is represented in Figure 6A. Catechins with galloyl moiety (ECG and EGCG) reduced catalase activity more than its non-gallated counterparts i.e. EGC and EC. However, Inhibition by EGCG is the closest to inhibition by known catalase inhibitor 3-AT.

DNA methyltransferase = settings: KYSE 510 human esophageal cancer cells; cited from earlier work
[2] = biological target: T2, cellular catalase in K562 cells (Homo sapiens, UniProt P04040); assay: Inhibition of cellular catalase activity in K562 cells; format: cell-based; settings: 50 µM each, 2 hours at 37°C
T2 construct: endogenous in cells; host or cells: K562 cells
T2 sequence (P04040 2-527 limits assumed): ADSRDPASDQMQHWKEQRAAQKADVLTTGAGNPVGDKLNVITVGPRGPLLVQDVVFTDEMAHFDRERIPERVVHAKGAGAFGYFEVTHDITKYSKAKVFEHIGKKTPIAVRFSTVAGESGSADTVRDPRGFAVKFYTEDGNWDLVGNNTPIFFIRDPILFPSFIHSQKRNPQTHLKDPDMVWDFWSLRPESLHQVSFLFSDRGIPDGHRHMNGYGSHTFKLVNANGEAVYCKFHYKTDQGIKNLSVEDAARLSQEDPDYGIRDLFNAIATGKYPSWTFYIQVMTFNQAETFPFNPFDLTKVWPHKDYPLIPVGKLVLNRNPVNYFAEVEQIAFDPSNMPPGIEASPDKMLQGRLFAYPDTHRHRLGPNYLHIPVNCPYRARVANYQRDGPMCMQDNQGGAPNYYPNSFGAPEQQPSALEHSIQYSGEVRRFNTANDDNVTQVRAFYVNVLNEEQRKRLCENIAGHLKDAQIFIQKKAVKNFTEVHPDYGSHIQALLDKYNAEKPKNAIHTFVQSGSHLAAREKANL
Experimental: Estimation of cellular catalase activity was carried out by suspending K562 cells (5×10^4 for each sample) in 1 ml of PBS along with four catechins and 3-AT (50 µM each) separately and incubated at 37°C for 2 hours. Later, each sample was centrifuged and washed twice with PBS. The final pellet was suspended in 200 µl lysis buffer and kept on ice for 30 min. The lysate was then used in the same protocol used for evaluation of pure catalase activity.
as §1

[3] = biological target: T1, Catalase (from bovine liver); assay: Isothermal titration calorimetry of catechins binding to catalase; settings: 25°C
Experimental: The energetics of the binding of catechins to catalase was studied by ITC using a MicroCal ITC200, (Northampton, MA, USA). All solutions were degassed under vacuum (140 mbar, 10 min) on the MicroCal’s Thermovac unit to eliminate air bubble formation inside the calorimeter cell. Briefly, the calorimeter syringe was filled with a concentrated solution of catechins (10 µM each). Successive injections of this solution into 1 µM solution of catalase in the calorimeter cell were effected from the rotating syringe with constant stirring of the solution. The titration and analysis were performed through Origin 7 software provided with the unit.
ITC directly measures the heat released during a chemical reaction. ITC can reveal the stoichiometry, enthalpy free energy, and entropy changes that occur over the course of a reaction, [46]. Data obtained from the titration are presented by the series of peaks corresponding to each injection. Usually, this representation is transformed into the apparent heat change between two injections as a function of the titrant ratio by means of integration of power differential with regard to time. ITC has been used mainly to quantify interactions in various biochemical systems [47]–[49]. ITC has been used in the present study to determine binding affinity and other thermodynamic parameters of catechins-catalase interaction. Representative isothermal calorimetric heat profiles for the binding of catechins-catalase interaction, at physiological pH and 25°C are shown in Figure 4 (A–D). The data were corrected for the heat of dilution of catechins, which was determined in a separate set of experiments under identical conditions. The titration and analysis were performed using one-site binding model through Origin 7 software provided with the unit. From Figure 4 it is observed that the titration of catalase with all the four catechins yield negative heat deflections. EC, EGC, ECG, and EGCG bind to catalase with binding constants 2.13×10^5, 1.92×10^5, 6.36×10^5, and 8.19×10^5 M^−1, respectively, as determined by the following equation: ΔG = −RT ln K, where ΔG is the free energy, R and T are the gas constant and temperature, respectively, K is the binding constant.

[4] = ITC, directly extracted from the experiment

## O=C(O[C@@H]1Cc2c(O)cc(O)cc2O[C@@H]1c1cc(O)c(O)c(O)c1)c1cc(O)c(O)c(O)c1 [EGCG, (−)-epigallocatechin gallate]
K562 cells
  IC50: 54.5 µM
K562 cells; conversion of the µM value
  IC50: 27 µg/mL
[1]; Lineweaver-Burk plot, uninhibited 0.0081
  y-intercept 1/V0 of inhibited catalase: 0.3635 min/µM
[1]; catalase – H2O2 reaction
  type of inhibition (Lineweaver-Burk plot): uncompetitive
[1]; pure catalase, 50 µM each, 1 h incubation
  order of inhibition of catalase activity: 3-AT>EGCG>ECG>EC>EGC
DNA methyltransferase
  Ki: 7 µM
[2]
  inhibition of cellular catalase activity: inhibited cellular catalase in K562 cancer cells
[3]; ITC, calculated from the average values of ΔH
  ΔG: -7.95 kcal/mol
[3]; [4]
  ΔH: -450 ± 22.5 kcal/mol
  ΔS: −1.48×10^3 cal/mol/K
[3]; one-site binding model, from ΔG = −RT ln K, read-out: binding constant with catalase (ITC) (converted)
  Kd: 1.22 µM

Source: article PMC4099323, “Inhibition of Catalase by Tea Catechins in Free and Cellular State: A Biophysical Approach” (PLoS ONE, 2014)
